System: 677734-321-R-J1-PDC complex spheroid viability
Assay: Anticancer human tumor 677734-321-R-J1-PDC patient-derived soft tissue sarcoma cell line growth inhibition [POLQ]
Conditions: for IC50: curve of first compound; for viability, T/C: stronger effect = lower value
Outline: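 Complex spheroid viability model combining PDC tumour cells with endothelial (HUVEC) and MSC stromal cells. Novobiocin, ART-558 or RP6685 were tested singly and in combination with standard and investigational anticancer drugs. Each was titrated in half-log steps from near clinical Cmax, or from 10 microM where Cmax was unknown.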

[1] = second compound 0.0316 µM, first compound 0.0316 µM
[2] = second compound 0.0316 µM, first compound 0.1 µM
[3] = second compound 0.0316 µM, first compound 0.316 µM
[4] = second compound 0.0316 µM, first compound 1 µM
[5] = second compound 0.0316 µM, first compound 3.16 µM
[6] = second compound 0.0316 µM, first compound 10 µM
[7] = second compound 0.1 µM, first compound 0.0316 µM
[8] = second compound 0.1 µM, first compound 0.1 µM
[9] = second compound 0.1 µM, first compound 0.316 µM
[10] = second compound 0.1 µM, first compound 1 µM
[11] = second compound 0.1 µM, first compound 3.16 µM
[12] = second compound 0.1 µM, first compound 10 µM
[13] = second compound 0.316 µM, first compound 0.0316 µM
[14] = second compound 0.316 µM, first compound 0.1 µM
[15] = second compound 0.316 µM, first compound 0.316 µM
[16] = second compound 0.316 µM, first compound 1 µM
[17] = second compound 0.316 µM, first compound 3.16 µM
[18] = second compound 0.316 µM, first compound 10 µM
[19] = second compound 1 µM, first compound 0.0316 µM
[20] = second compound 1 µM, first compound 0.1 µM
[21] = second compound 1 µM, first compound 0.316 µM
[22] = second compound 1 µM, first compound 1 µM
[23] = second compound 1 µM, first compound 3.16 µM
[24] = second compound 1 µM, first compound 10 µM
[25] = second compound 3.16 µM, first compound 0.0316 µM
[26] = second compound 3.16 µM, first compound 0.1 µM
[27] = second compound 3.16 µM, first compound 0.316 µM
[28] = second compound 3.16 µM, first compound 1 µM
[29] = second compound 3.16 µM, first compound 3.16 µM
[30] = second compound 3.16 µM, first compound 10 µM
[31] = second compound 10 µM, first compound 0.0316 µM
[32] = second compound 10 µM, first compound 0.1 µM
[33] = second compound 10 µM, first compound 0.316 µM
[34] = second compound 10 µM, first compound 1 µM
[35] = second compound 10 µM, first compound 3.16 µM
[36] = second compound 10 µM, first compound 10 µM
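Further: spheroids exposed to compounds for one week.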
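Wherever viability, T/C is given: 100% = vehicle DMSO treated spheroids.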

C#Cc1c(F)ccc2cc(O)cc(-c3ncc4c(N5CC6CCC(C5)N6)nc(OCC56CCCN5CC(F)C6)nc4c3F)c12 (stereo unspecified) + Cc1cccc(N(C)C(=O)C2C(O)CCN2c2nc(C)cc(C(F)(F)F)c2C#N)c1
IC50 (second compound 0.0316 µM): > 10 µM | IC50 (second compound 0.1 µM): > 10 µM | IC50 (second compound 0.316 µM): > 10 µM | IC50 (second compound 1 µM): > 10 µM | IC50 (second compound 3.16 µM): > 10 µM | IC50 (second compound 10 µM): > 10 µM | viability, T/C [1]: 110% | viability, T/C [2]: 101% | viability, T/C [3]: 108% | viability, T/C [4]: 103% | viability, T/C [5]: 101% | viability, T/C [6]: 102% | viability, T/C [7]: 111% | viability, T/C [8]: 106% | viability, T/C [9]: 105% | viability, T/C [10]: 100% | viability, T/C [11]: 106% | viability, T/C [12]: 107% | viability, T/C [13]: 118% | viability, T/C [14]: 97.5% | viability, T/C [15]: 100% | viability, T/C [16]: 100% | viability, T/C [17]: 110% | viability, T/C [18]: 104% | viability, T/C [19]: 105% | viability, T/C [20]: 97% | viability, T/C [21]: 109% | viability, T/C [22]: 100% | viability, T/C [23]: 107% | viability, T/C [24]: 102% | viability, T/C [25]: 98.1% | viability, T/C [26]: 102% | viability, T/C [27]: 103% | viability, T/C [28]: 109% | viability, T/C [29]: 101% | viability, T/C [30]: 107% | viability, T/C [31]: 99.9% | viability, T/C [32]: 104% | viability, T/C [33]: 107% | viability, T/C [34]: 99.2% | viability, T/C [35]: 103% | viability, T/C [36]: 98.8%

CC[C@@]1(O)C(=O)OCc2c1cc1n(c2=O)Cc2cc3c(CN(C)C)c(O)ccc3nc2-1 + Cc1cccc(N(C)C(=O)C2C(O)CCN2c2nc(C)cc(C(F)(F)F)c2C#N)c1
IC50 (second compound 0.0316 µM): 0.0262 µM | IC50 (second compound 0.1 µM): 0.0262 µM | IC50 (second compound 0.316 µM): 0.023 µM | IC50 (second compound 1 µM): 0.0275 µM | IC50 (second compound 3.16 µM): 0.0243 µM | IC50 (second compound 10 µM): 0.0253 µM | viability, T/C (second compound 0.0316 µM, first compound 0.000316 µM): 104% | viability, T/C (second compound 0.0316 µM, first compound 0.001 µM): 105% | viability, T/C (second compound 0.0316 µM, first compound 0.00316 µM): 102% | viability, T/C (second compound 0.0316 µM, first compound 0.01 µM): 102% | viability, T/C [1]: 39.4% | viability, T/C [2]: 15.8% | viability, T/C (second compound 0.1 µM, first compound 0.000316 µM): 103% | viability, T/C (second compound 0.1 µM, first compound 0.001 µM): 113% | viability, T/C (second compound 0.1 µM, first compound 0.00316 µM): 108% | viability, T/C (second compound 0.1 µM, first compound 0.01 µM): 99.9% | viability, T/C [7]: 40.2% | viability, T/C [8]: 21.1% | viability, T/C (second compound 0.316 µM, first compound 0.000316 µM): 112% | viability, T/C (second compound 0.316 µM, first compound 0.001 µM): 112% | viability, T/C (second compound 0.316 µM, first compound 0.00316 µM): 100% | viability, T/C (second compound 0.316 µM, first compound 0.01 µM): 91.3% | viability, T/C [13]: 34.1% | viability, T/C [14]: 17.8% | viability, T/C (second compound 1 µM, first compound 0.000316 µM): 124% | viability, T/C (second compound 1 µM, first compound 0.001 µM): 96.4% | viability, T/C (second compound 1 µM, first compound 0.00316 µM): 105% | viability, T/C (second compound 1 µM, first compound 0.01 µM): 100% | viability, T/C [19]: 42.2% | viability, T/C [20]: 17.6% | viability, T/C (second compound 3.16 µM, first compound 0.000316 µM): 120% | viability, T/C (second compound 3.16 µM, first compound 0.001 µM): 100% | viability, T/C (second compound 3.16 µM, first compound 0.00316 µM): 109% | viability, T/C (second compound 3.16 µM, first compound 0.01 µM): 94.1% | viability, T/C [25]: 37% | viability, T/C [26]: 17.5% | viability, T/C (second compound 10 µM, first compound 0.000316 µM): 108% | viability, T/C (second compound 10 µM, first compound 0.001 µM): 100% | viability, T/C (second compound 10 µM, first compound 0.00316 µM): 98.2% | viability, T/C (second compound 10 µM, first compound 0.01 µM): 91.9% | viability, T/C [31]: 39.8% | viability, T/C [32]: 23.2%

CCc1cc2c(N3CCc4c(cc(Cn5ccnc5)cc4-c4cn(C)nc4C(F)(F)F)C3=O)ccnc2c(OC)n1 + Cc1cccc(N(C)C(=O)C2C(O)CCN2c2nc(C)cc(C(F)(F)F)c2C#N)c1
IC50 (second compound 0.0316 µM): > 10 µM | IC50 (second compound 0.1 µM): 9.08 µM | IC50 (second compound 0.316 µM): 5.19 µM | IC50 (second compound 1 µM): 7.18 µM | IC50 (second compound 3.16 µM): 4.89 µM | IC50 (second compound 10 µM): 1.98 µM | viability, T/C [1]: 104% | viability, T/C [2]: 94.4% | viability, T/C [3]: 86.5% | viability, T/C [4]: 96.9% | viability, T/C [5]: 60.5% | viability, T/C [6]: 58.8% | viability, T/C [7]: 113% | viability, T/C [8]: 104% | viability, T/C [9]: 99.4% | viability, T/C [10]: 84% | viability, T/C [11]: 59.7% | viability, T/C [12]: 49.7% | viability, T/C [13]: 100% | viability, T/C [14]: 110% | viability, T/C [15]: 92.3% | viability, T/C [16]: 85.8% | viability, T/C [17]: 59.8% | viability, T/C [18]: 36.5% | viability, T/C [19]: 94.7% | viability, T/C [20]: 79% | viability, T/C [21]: 100% | viability, T/C [22]: 77.8% | viability, T/C [23]: 75.1% | viability, T/C [24]: 40.2% | viability, T/C [25]: 110% | viability, T/C [26]: 79.9% | viability, T/C [27]: 93.2% | viability, T/C [28]: 76.1% | viability, T/C [29]: 64.6% | viability, T/C [30]: 31.6% | viability, T/C [31]: 87.9% | viability, T/C [32]: 67.9% | viability, T/C [33]: 60.5% | viability, T/C [34]: 65.8% | viability, T/C [35]: 46.3% | viability, T/C [36]: 30.5%
